The structures appear in SMILES notation. ≈ marks a conversion by molar mass, not a printed value. Where two headings read alike, the source gives them in different places.

Among the data in US10806765B2, “Immunologically active phyto-mixture and its use in the prevention and in a method for treatment of efflorescences” (priority 2015, dated 2020) are IC50, MBC and MIC values, retold here.

What all share (format): cell-based
Series [1] is described as follows: MTT-assay, cytotoxicity of the extracts. Particulars: human, HaCaT cells (keratinocytes), individual extracts, mean ± SD, n=3. A general note: Tetrazolium assays rely on reduction of a dye to a coloured formazan, in cell work by metabolically active cells.
Procedure: HaCaT-Cells (human in vitro spontaneous transformed keratinocytes from histologically normal skin) of DMSZ (German Collection of Microorganisms and Cell Cultures) were kept in Dulbecco's modified Eagle Medium (DMEM) with glutamax (Invitrogen/Gibco, Karlsruhe, Germany) with 10% fetal calf serum (Sigma Aldrich, Germany), 100 U/ml penicillin and 100 μg/ml streptomycin and 1% NEAA.
The cells were cultivated at 37° C., 5% CO2 and 95% humidity. The cells were subcultivated by removing the medium, adding 0.075% EDTA-solution in 1-fold PBS (phosphate-buffered salt solution) and subsequently incubated at 37° C. for 10 min. […]
In order to determine the concentration dependent cytotoxicity 2×10^4 HaCaT-cells/sample well of a 96-well plate were transferred and incubated for 24 hours. […] After dissolving the formazan crystals formed by the HaCaT-cells in 100 μl DMSO (10 minutes shaking), absorption at 570 nm was measured (by means of Tecan Safire II Reader, Tecan Crailsheim, Germany). Doxorubicin was measured as reference. Cell vitality was determined according to the following formula:
IC50-values were calculated through the dose response curve which was created by use of a logistic regression curve with 4 parameters with the GraphPad Prism® 5.01 Software or SigmaPlot® 11.0.
The subject of series [2] is Pseudomonas aeruginosa ATCC 27853. Nature of the series: MIC/MBC, microbouillon dilution. As to conditions: ATCC27853, positive control antibiotic, unit from Table 5c. The procedure: (§1) Gram-Positive Bacteria • Methicillin resistant Staphylococcus aureus MRSA NCTC 10442 (MRSA NCTC 10442) • Staphylococcus aureus ATCC 25923 (S. aureus ATCC 25923) • Staphylococcus epidermidis ATCC 14990 (S. epid. ATCC 14990)
(§2) Gram-Negative Bacteria • Pseudomonas aeruginosa ATCC 27853 (P. aerug. ATCC 27853) and • Acinetobacter baumanii ATCC BAA747 (ATCC BAA747)
(§3) The bacteria were precultivated on Columbia medium with 5% sheep blood at 37° C. for 24 hours. On to two colonies were suspended in saline solution (0.9% NaCl) and adjusted to a turbidity of 0.5 McFarland standard which corresponds to 1×10^8 colony forming units per milliliter (CFU/ml). Subsequently, the suspension was diluted to 1×10^6 CFU/ml.
(§4) Determination of the Minimal Inhibitory Concentration (MIC) and the Minimum Bactericidal Concentration (MBC)
(§5) The MIC was determined by means of the microbouillon dilution process according to NCCLS (2006). For this purpose, the aqueous extracts were dissolved in water (w/v) and the ethanolic extracts in 5% DMSO (w/v) with 80 mg/ml each and Bur. simaruba as well as Aloe vera were suspended with 160 mg/ml. The extracts and the combinations (1:1 mixture) of two plant extracts were respectively transferred into a sample well of a 96-well plate. The individual extracts were respectively adjusted to a concentration of 4 mg/ml to 8 mg/ml and 0.03 mg/ml and the combinations to 2:2 mg/ml to 0.3:0.3 mg/ml. Subsequently, the bacteria suspensions with about 5×10^5 CFU/ml in Müller Hinton medium (Fluka) were respectively added. The accordingly fitted 96-well plates were incubated at 37° C. for 24 hours.
(§6) The MIC was determined at 600 nm on the basis of the turbidity. In order to determine the MBC, 3 μl of the suspension of the respective sample well were spread on an full culture medium and incubated at 37° C. for 24 hours. The MBC was determined as lowest concentrations of the respective extract which totally kills the microorganisms.
(§7) All experiments were performed as three-fold determination (Table 4 to 5). The antibiotics Vancomycin (briefly: Van) and Streptomycin (briefly: Strep) were used parallely to each experimental approach as positive control for antimicrobial efficiency (Table 5c). Respectively one of the mentioned test germs was carried along with the respectively solvent (water, DMSO) as negative control for an inhibiting effect by the used solvent.

Series [3] deals with Staphylococcus epidermidis ATCC 14990. Nature of the series: MIC/MBC, microbouillon dilution. Here is the method: as §1, §2, §3, §4, §5, §6, §7
For series [4], the system named is Staphylococcus aureus ATCC 25923. Nature of the series: MIC/MBC, microbouillon dilution. The procedure: as §1, §2, §3, §4, §5, §6, §7
In series [5] the test system is Acinetobacter baumanii ATCC BAA747. Nature of the series: MIC/MBC, microbouillon dilution. As to conditions: Acinetobacter baumannii, ATCCBAA747. The procedure:
as §1, §2, §3, §4, §5, §6, §7

In series [6] the test system is Methicillin resistant Staphylococcus aureus MRSA NCTC 10442. Nature of the series: MIC/MBC, microbouillon dilution. Here is the method:
as §1, §2, §3, §4, §5, §6, §7

Consider `COc1cccc2c1C(=O)c1c(O)c3c(c(O)c1C2=O)C[C@@](O)(C(=O)CO)C[C@@H]3O[C@H]1C[C@H](N)[C@H](O)[C@H](C)O1` [Doxorubicin], for which, in series [1], it took 8.6 ± 2.03 µg/mL (≈ 15.8 µM) to reach half-maximal inhibition (IC50).
Consider `[H]/N=C(/N)N[C@H]1[C@H](O)[C@@H](O)[C@H](O[C@@H]2O[C@@H](C)[C@](O)(C=O)[C@H]2O[C@@H]2O[C@@H](CO)[C@H](O)[C@@H](O)[C@@H]2NC)[C@@H](N/C(N)=N\[H])[C@@H]1O` [Strep, Streptomycin], for which the MBC (usually the lowest tested concentration that kills the bacteria rather than only halting them) came to 8 µg/mL in series [2]; 8 µg/mL in series [3] (ATCC14990, positive control antibiotic, unit from Table 5c, read-out: MBC); 8 µg/mL in series [4] (ATCC25923, positive control antibiotic, unit from Table 5c, read-out: MBC); 4 µg/mL in series [5] (positive control antibiotic, unit from Table 5c, read-out: MBC). The MIC (in general, the lowest concentration that inhibits growth of the organism) stood at 4 µg/mL in series [2]; 1 µg/mL in series [3] (ATCC14990, positive control antibiotic, unit from Table 5c, read-out: MIC); 2 µg/mL in series [4] (ATCC25923, positive control antibiotic, unit from Table 5c); 2 µg/mL in series [5] (positive control antibiotic, unit from Table 5c, read-out: MIC).
As to `CN[C@H](CC(C)C)C(=O)N[C@H]1C(=O)N[C@@H](CC(N)=O)C(=O)N[C@H]2C(=O)N[C@H]3C(=O)N[C@H](C(=O)N[C@H](C(=O)O)c4cc(O)cc(O)c4-c4cc3ccc4O)[C@H](O)c3ccc(c(Cl)c3)Oc3cc2cc(c3O[C@@H]2O[C@H](CO)[C@@H](O)[C@H](O)[C@H]2O[C@H]2C[C@](C)(N)[C@H](O)[C@H](C)O2)Oc2ccc(cc2Cl)[C@H]1O` [Van, Vancomycin], the minimum bactericidal concentration (MBC) was determined as 2 µg/mL in series [3] (ATCC14990), 0.5 µg/mL in series [4] (ATCC25923), 128 µg/mL in series [5] and 2 µg/mL in series [6]. The MIC in series [3] (ATCC14990) stood at 1 µg/mL; in series [5], 64 µg/mL; in series [6] it was 1 µg/mL.
